# Measurements published in article PMC9144936, “New Cu^+2 Complexes with N-Sulfonamide Ligands: Potential Antitumor, Antibacterial, and Antioxidant Agents” (Molecules, 2022).
# How the values were obtained:
# HeLa, WM35, HFL1 cells = assay type: cell-based
# Method: (§1) Three cell lines were used to determine the cytotoxicity of the complexes, a human cervical carcinoma line (HeLa), a human radical growth phase melanoma cell line (WM35), and a normal fibroblastic epithelial cell line (HFL1) using the MTT method. The cells were exposed to C1 and C2 complexes in different concentrations (50, 25, 12.5, 2, and 0.2 µM) at 24, 48, and 72 h. As positive contro, cisplatin was used.
# This means that the cyytotoxicity is given by the complexes and that the chelation of the ligands with the copper ion is essential for the cytotoxicity of the complexes.
# The cytotoxicity assays were performed using the MTT assay (3-(4,5-dimethylthiazol-2-yl)-2,5-diphenyl tetrazolium bromide-Sigma Aldrich). Cells were plated at a density of 1 × 10^5 cells/well in 96-well plates for 24 h in normal propagation media. The cultures were then exposed to C1 and C2 complexes in different concentrations (50, 25, 12.5, 2, and 0.2 µM). The complexes were first solubilized in DMSO (Sigma) and then serial dilutions in media were performed until the final concentration of DMSO was less than 1%. […] The cellular viability was determined using the MTT assay at 24, 48, and 72 h, respectively. Formazan particles were solubilized with DMSO and absorbances were determined at 550 nm using a microplate reader (Bio-Rad, Hercules, CA, USA). […]
# [1] = test system: normal fibroblastic epithelial cell line (HFL1); assay: MTT cytotoxicity assay, HFL1; assay type: cell-based; conditions: HFL1 cells
# Method: as §1
# (§2) To determine the cytotoxicity of the copper complexes, three cell lines were used: a human cervical carcinoma line (HeLa), a human radical growth phase melanoma cell line (WM35), and a normal fibroblastic epithelial cell line (HFL1). The cell lines were obtained from ATCC (American Type Cell Collection, Manassas, VA 20110-2209, USA) and were maintained in DMEM (Sigma-Aldrich, Saint Louis, Missouri, USA) supplemented with 10% fetal bovine serum (Hyclone), 1 mM glutamine (Sigma-Aldrich), and 1% antibiotic antimycotic 100× (Sigma-Aldrich). The cells were cultured at 37 °C in an atmosphere of 5% CO2 and 95% relative humidity.
# (§3) The cytotoxicity assays were performed using the MTT assay (3-(4,5-dimethylthiazol-2-yl)-2,5-diphenyl tetrazolium bromide-Sigma Aldrich). Cells were plated at a density of 1 × 10^5 cells/well in 96-well plates for 24 h in normal propagation media. The cultures were then exposed to C1 and C2 complexes in different concentrations (50, 25, 12.5, 2, and 0.2 µM). The complexes were first solubilized in DMSO (Sigma) and then serial dilutions in media were performed until the final concentration of DMSO was less than 1%. As a positive control, cisplatin (Ebewe Pharma Ges.m.b.H. Nfg. KG, Austria) was used, in the same concentrations as the complexes. As a negative control, cell lines cultivated in normal expansion medium with the same amount of DMSO added were used. The cellular viability was determined using the MTT assay at 24, 48, and 72 h, respectively. Formazan particles were solubilized with DMSO and absorbances were determined at 550 nm using a microplate reader (Bio-Rad, Hercules, CA, USA). The cytotoxic activity, expressed as IC50 values representing the complex solution required to inhibit 50% of the cell proliferation, were calculated from the calibration curve by nonlinear regression. Each experiment was carried out in triplicate.
# [2] = test system: human radical growth phase melanoma cell line (WM35); assay: MTT cytotoxicity assay, WM35; assay type: cell-based; conditions: WM35 cells, MTT
# Method: as §1, §2, §3
# [3] = test system: human cervical carcinoma line (HeLa); assay: MTT cytotoxicity assay, HeLa; assay type: cell-based; conditions: HeLa cells
# Method: as §1, §2, §3
# [4] = SOD mimetic activity, xanthine/xanthine oxidase system, NBT reduction; assay type: biochemical; conditions: pH 7.8, read-out: SOD-like activity IC50 (50% inhibition of NBT reduction)
# Method: The SOD-like activities of complexes C1 and C2 were determined by an indirect method using the xanthine/xanthine oxidase system as the source of superoxide radicals. […] The IC50 value for native Cu2Zn2SOD is 0.006 μΜ. Thus, the IC50 values for both complexes are higher than the IC50 value for native Cu2Zn2SOD but are similar to those of complexes with related sulfonamide ligands presented in the literature.
# The in vitro SOD mimetic activities of the complexes were assayed using the Oberley and Spitz method with some minor modifications. To generate a reproductible and constant flux of superoxide anions, xanthine (1.5 × 10^−4 M) and xanthine oxidase in 50 mM potassium phosphate buffer, pH = 7.8, were used. The superoxide anions were detected by the reduction of nitro blue tetrazolium (NBT) (5.6 × 10^−5 M) to blue formazane, which was determined spectrophotometrically at 560 nm. Different concentrations of the complexes (50, 25, 12.5, 2, and 0.2 μM) were prepared in 50 mM Tris-HCl buffer, pH = 7.8. For each determination, 0.1 mL complex solution + 0.1 mL xanthine oxidase were added to 0.8 mL of solution containing 0.69 mL potassium phosphate buffer (pH = 7.8), 0.025 mL NBT, and […]. The inhibition percentage of NBT reduction was used to determine the SOD activities of the complexes. The conversion of xanthine to uric acid was measured at 310 nm. The % inhibition of enzyme activity was subtracted from that of NBT. The IC50 values (the concentration of complex needed to yield 50% inhibition of NBT reduction) were determined from plots of % inhibition versus complex concentration. A Specord 200 Plus Spectrophotometer was used to perform the determinations and all reagents were purchased from Sigma-Aldrich.
# [5] = test system: Pseudomonas aeruginosa ATCC 27853; assay: Disk diffusion method, P. aeruginosa; assay type: cell-based; parameters: key to Halo Zone Test, class symbol: R = resistant; conditions: 24 h, 37 °C
# Text: (§4) The disk diffusion method was used to determine the antibacterial activity of the C1 and C2 copper complexes on four reference microbial strains, two Gram-positive (Staphylococcus aureus and Bacillus cerreus) and two Gram-negative (Escherichia coli and Pseudomonas aeruginosa) strains. The disk diffusion method was used to determine the antibacterial activity of the C1 and C2 copper complexes. The method was adapted for the purposes of the current study, according to the standards developed by the Clinical and Laboratory Standards Institute. Four reference microbial strains, two Gram-positive (Staphylococcus aureus ATCC […] and Bacillus cerreus ATCC 14579) and two Gram-negative (Escherichia coli ATCC 10536 and Pseudomonas aeruginosa ATCC 27853) strains, were used for in vitro susceptibility testing. These reference microbial strains were obtained from the American Type Culture Collection (ATCC, Manassas, VA, USA). As positive controls, Amoxicillin (Oxoid Ltd., Basingstoke, UK) and Norfloxacin (Sigma-Aldrich) were used. For each of the four species, an initial suspension of bacterial cultures was inoculated on nutrient agar plates (Merck KGaA, Darmstadt, Germany), incubated for 24 h at 37 ± 2 °C and resuspended in a physiological saline buffer to a […] concentration (on a 0.5 McFarland scale), and further inoculated on Muëller Hinton agar plates (Merck KGaA, Darmstadt, Germany). […] After inoculation, the medium surface was dried and 8 wells were radially drilled 1.5 cm from the outer edge, 3 cm apart. From aliquot samples of 1 mg/mL of each copper complex dissolved in DMSO and incorporated in sterile liquid medium, 5 μL was placed in each of the 8 wells and left for 30 min to diffuse into the agar plates. The plates were then incubated for 24 h at 37 ± 2 °C. Then, 25 μg Amoxicillin and 5 μg Norfloxacin served as a positive controls, while DMSO 0.75% was used as a negative control. Readings were conducted by measuring the diameter of the inhibition zone (Halo Zone Test, in mm). The germ sensitivity of the copper complexes was estimated by comparing the diameter of the inhibition area to that generated by the regular antibiotics with known inhibition values. […] All tests were triplicated, and the measured diameters of the inhibition zone were expressed (in mm) as mean ± standard deviation.
# [6] = test system: Bacillus cerreus ATCC 14579; assay: Disk diffusion method, B. cerreus; assay type: cell-based; conditions: Bacillus, ATCC14579; complexes 5 µL of 1 mg/mL; 25 µg Amoxicillin, 5 µg Norfloxacin; 24 h, 37 °C; read-out: Halo Zone Test (diameter of the inhibition zone)
# Text: as §4
# [7] = test system: Staphylococcus aureus ATCC 6538P; assay: Disk diffusion method, S. aureus; assay type: cell-based; conditions: Staphylococcus aureus, ATCC6538P; complexes 5 µL of 1 mg/mL; 25 µg Amoxicillin, 5 µg Norfloxacin; 24 h, 37 °C; read-out: Halo Zone Test (diameter of the inhibition zone)
# Text: as §4
# [8] = test system: Escherichia coli ATCC 10536; assay: Disk diffusion method, E. coli; assay type: cell-based; conditions: Escherichia coli, ATCC10536; complexes 5 µL of 1 mg/mL; 25 µg Amoxicillin, 5 µg Norfloxacin; 24 h, 37 °C; read-out: Halo Zone Test (diameter of the inhibition zone)
# Text: as §4
compound,measurement,setting,value
"Cc1ccc(-c2nnc(NS(=O)(=O)c3cccc4ccccc34)s2)cc1 [HL1, N-(5-(4-methylphenyl)-[1,3,4]–thiadiazole–2-yl)-naphtalenesulfonamide]",cytotoxicity of the free ligands,"HeLa, WM35, HFL1 cells",no significant cytotoxicity
"CCc1nnc(NS(=O)(=O)c2cccc3ccccc23)s1 [HL2, N-(5-ethyl-[1,3,4]–thiadiazole–2-yl)-naphtalenesulfonamide]",cytotoxicity of the free ligands,"HeLa, WM35, HFL1 cells",no significant cytotoxicity
"N.N.[Cl][Pt][Cl] [Cisplatin, cisplatin, reference compound]",IC50,[1]; 24 h,13.2 ± 0.89 µM
same,IC50,[1]; 48 h,3.99 ± 0.22 µM
same,IC50,[1]; 72 h,1.18 ± 0.13 µM
same,IC50,[2]; 24 h,26.1 ± 0.43 µM
same,IC50,[2]; 48 h,11.15 ± 0.09 µM
same,IC50,[2]; 72 h,5.98 ± 0.03 µM
same,IC50,[3]; 24 h,21.03 ± 0.14 µM
same,IC50,[3]; 48 h,6.02 ± 0.19 µM
same,IC50,[3]; 72 h,2.39 ± 0.04 µM
"Cu2Zn2SOD: native Cu2Zn2 superoxide dismutase enzyme, comparison for SOD-like activity",IC50,[4],0.006 µM
"CC1(C)S[C@@H]2[C@H](NC(=O)[C@H](N)c3ccc(O)cc3)C(=O)N2[C@H]1C(=O)O [Amoxicillin, reference compound]","Halo Zone Test, class symbol",[5]; 25 µg Amoxicillin,R
same,zone of inhibition at 1000 µg/mL,[6],13 ± 0.22 mm
same,zone of inhibition at 1000 µg/mL,[7],19 ± 0.14 mm
same,zone of inhibition at 1000 µg/mL,[8],18 ± 0.09 mm
"CCn1cc(C(=O)O)c(=O)c2cc(F)c(N3CCNCC3)cc21 [Norfloxacin, reference compound]",zone of inhibition at 1000 µg/mL,"[5]; Pseudomonas aeruginosa, ATCC27853, complexes 5 µL of 1 mg/mL, 5 µg Norfloxacin, read-out: Halo Zone Test (diameter of the inhibition zone)",25 ± 0.24 mm
same,zone of inhibition at 1000 µg/mL,[6],18 ± 0.19 mm
same,zone of inhibition at 1000 µg/mL,[7],16 ± 0.21 mm
same,zone of inhibition at 1000 µg/mL,[8],20 ± 0.11 mm
